Data as given in US20250152559A1, “METHODS FOR TREATING MYC-AMPLIFIED CANCER” (The Governing Council of the University of Toronto, priority 2023, published 2025).
“And” between values parts separate entries of the source, which are not always exact repeats. Equal entries are not always repeated.

Key:
EGR1 = experiment: Western blotting of EGR1 expression; type: cell-based, human; conditions: BAY-treated tumor cells relative to control
Description: A wide range of enriched biological processes were detected upon genetic loss of DHODH, including myogenic differentiation, apoptosis, DNA damage response and signaling via tumor necrosis factor α (TNFα).
Protein lysates were isolated from approximately 500,000-1,000,000 cells. Pellets were rinsed with PBS and then lysed in RIPA buffer containing HALT™ protease inhibitor cocktail (ThermoFisher). Protein concentrations were quantified using the Bradford Assay (BioRad). Protein size was resolved via SDS-PAGE and then transferred to PVDF for immunoblotting. Rabbit polyclonal anti-DHODH (Cell Signaling Technologies; catalogue #80981), rabbit monoclonal anti-EGR1 (Cell Signaling Technologies; catalogue #4145), rabbit polyclonal anti-phospho-ERK1/2 Thr202/Tyr204 (Cell Signaling Technologies; catalogue #9101), rabbit monoclonal anti-phospho-4E-BP1 Thr37/46 (Cell Signaling Technologies; catalogue #2855) were used at a 1:1000 dilution. Mouse monoclonal anti-GAPDH (Abcam; catalogue #ab8245) was used at a 1:5000 dilution. For development, horse-radish peroxidase-conjugated secondary anti-mouse (BioRad; catalogue #1706516) and anti-rabbit antibodies (BioRad; catalogue #1706515) were used with BioRad Clarity ECL reagents. Quantification was performed by analyzing mean pixel density of each band and then normalizing to GAPDH loading control. […]

[1] = Parallel artificial membrane permeability assay (PAMPA) for blood-brain barrier; type: in vitro ADME
Description: The capacity of BQR and BAY to permeate the blood-brain barrier was first examined using the in vitro parallel artificial membrane permeability assay (PAMPA)^48 (FIG. 5A).

[2] = tested on: de novo pyrimidine biosynthesis in brain tissue; experiment: LC-MS metabolome profiling of brain tissues of treated mice; type: in vivo; conditions: individual samples, listed as BAY
Description: In parallel to these experiments, subcutaneous flank xenografts were engrafted into two cohorts of mice, which were treated with the vehicle or R2. […] To investigate the pharmacokinetics of BAY in vivo, its concentration in plasma and brain tissues of healthy mice was directly quantified using an LC-MS approach. BAY was detected in both brains and plasma of mice undergoing treatment, however the plasma concentrations exceeded those of the brain by approximately 10-fold (FIG. 5H-I). To determine whether treatment with BAY affects de novo pyrimidine biosynthesis in vivo, changes in pyrimidine metabolism were measured in the brain in comparison to tumor tissues from the flank (FIG. 5J-K). Although BAY treatment impacted de novo pyrimidine metabolism in vivo in both brain and tumor tissues, with a similar pattern observed in vitro (FIG. 4A), the effect size was stronger in peripheral tumor tissue in comparison to brain tissue. Such findings further reflect the limited capacity for BAY to accumulate within the brain.
For metabolome profiling of tissues, ˜5 mg tissue were homogenized in 225 μL of −20° C. cold, methanol using a Bullet Blender Tissue Homogenizer (NextAdvance, Inc.) Bullet for 3 min. The homogenate was vortexed for 20 s and 750 μL of −20° C. cold methyl tertiary-butyl ether (MTBE) was added, and the mixture was vortexed for 10 s and shaken at 4° C. for 5 min. Next, 188 μL room temperature water was added and vortexed for 20 s to induce phase separation. After centrifugation for 5 min at 14,000×g, the bottom polar phase was collected and dried down. Metabolite extracts were reconstituted in LC-MS grade water/acetonitrile (50:50; v:v), vortexed for 1 min, sonicated for 15 min, and centrifuged at 16,000×g and 4° C. for 15 min to remove insoluble debris.
The LC-MS metabolomics and lipidomics analyses of the 3 NSC and 3 MB cell lines and tissues were performed on a UPLC-MS system consisting of an Orbitrap IQ-X Tribrid coupled to a Horizon Vanquish UPLC system (Thermo Fisher Scientific). The lipidomics analysis was conducted in positive-ion mode with a spray voltage of 3.5 kV while the metabolomics analysis was conducted in negative-ion mode with a spray voltage of −2.5 kV. The following source conditions were identical in both analyses and were set as follows: Sheath gas flow rate, 50 arbitrary units; Aux. gas flow rate, 10 arbitrary units; Sweep gas flow rate, 1 arbitrary unit; Ion transfer tube temp., 300° C.; Vaporizer temp., 350° C. The following acquisition parameters were used for MS1 analysis in both methods: resolution, 120,000, AGC target, 4e5. The maximum IT was set at […] for the lipidomics analysis and 200 ms for the metabolomics analysis. Data-dependent MS/MS parameters for the lipidomics analyses: resolution, 30,000; AGC target, 7.5e4; maximum IT, Dynamic (54 ms); time between Master Scans, 0.6 s; isolation window, 1.0 m/z; NCE/stepped nce, 20, 30, 40; intensity threshold, 5e4; exclude isotopes, on; dynamic exclusion, 3.0 s. Data-dependent MS/MS parameters for the metabolomics analyses: resolution. 15,000; AGC target, 7.5e4; maximum IT, Dynamic (22 ms); time between Master Scans, 0.6 s; isolation window, 1.0 m/z; NCE/stepped nce, 20, 30, 40, 50; intensity threshold, 5e4; exclude isotopes, on; dynamic exclusion, 5.0 s. To increase the total number of MS/MS spectra in the lipidomics analysis, five runs with iterative MS/MS exclusions were performed using the AcquireX function in Xcalibur (Thermo Fisher Scientific). In the metabolomics analysis, three runs with iterative MS/MS exclusions were performed using the AcquireX function. For the lipidomics analysis, chromatographic separation was achieved using a Waters Acquity UPLC CSH C18 (100 mm×2.1 mm i.d.; 1.7 μm) column injecting 2 μL. […] The column was equilibrated for 2 min at 15% B. The flow rate was set to 250 μL/min. The column temperature was maintained at 65° C. […]

[3] = brain tissue of BAY-treated mice

For `CCn1c(CO)nn(-c2cc(O[C@@H](C)C(F)(F)F)c(C(=O)Nc3c(F)cccc3Cl)cc2F)c1=O` [BAY2402234], the EGR1 protein expression (EGR1) was “upregulated at the protein level”, the “penetration coefficient (log PE)” value [1] was “superior penetration coefficient (log PE) compared to BQR” and the “Glutamine normalized peak intensity (Area)” value [2, 3] was 280983232 and 324326048 and 229454432 and 206007952. For the same compound, the “N-Carbamoyl aspartic acid normalized peak intensity (Area)” value [2, 3] was 1700352 and 1616900 and 1920988 and 2261730, the “Orotic acid normalized peak intensity (Area)” value [2, 3] was 3366687 and 6999989 and 4291824 and 3862066 and the “UDP-GluNAc normalized peak intensity (Area)” value [2, 3] was 16715786 and 8363980 and 11501715 and 11534621. For the same compound, the “UTP normalized peak intensity (Area)” value [2, 3] was 22962 and 19870 and 12207 and 19991, the “Uridine 5′-diphosphate (UDP) normalized peak intensity (Area)” value [2, 3] was 133672 and 97588 and 69682 and 73337 and the “Uridine 5′-monophosphate normalized peak intensity (Area)” value [2, 3] was 23218120 and 13372546 and 15616277 and 19018060. The “Uridine normalized peak intensity (Area)” value [2, 3] was 41449420 and 113184456 and 51214976 and 33664876, the “dihydroorotic acid normalized peak intensity (Area)” value [2, 3] was 1975829 and 3553594 and 1415838 and 2677330 and the “BAY-2402234 normalized peak intensity (Area)” value [2] was 1338708 and 4796862 and 1717137 and 2579631.
